Key:
Type in all cases: functional, Mytilus edulis/galloprovincialis MCLGV-2007
Mytilus edulis [1] = assay: Antifouling activity against blue mussel assessed as responding mussel at 100 ppm by foot stimulant method
Mytilus edulis [2] = assay: Antifouling activity against blue mussel assessed as responding mussel at 1 ppm by foot stimulant method
Mytilus edulis [3] = assay: Antifouling activity against blue mussel assessed as responding mussel at 10 ppm by foot stimulant method

Row | Structure (SMILES) | Activity (Mytilus edulis [1]) [%] | Activity (Mytilus edulis [2]) [%] | Activity (Mytilus edulis [3]) [%]
1 | CC(=O)C1=CC[C@H]2[C@]3(C)CC[C@H]4C(C)(C)CCC[C@]4(C(=O)O)[C@H]3CC(=O)[C@]2(C)[C@H]1C=O | 100 | 95 | 100
2 | CC(=O)O[C@H]1C[C@H]2[C@@](C)(CC[C@H]3C(C)(C)CCC[C@@]32C=O)[C@@H]2CC=C(C(C)=O)[C@H](C=O)[C@@]12C | 75 | 10 | 55
3 | CC(=O)OC[C@]12CCCC(C)(C)[C@@H]1CC[C@]1(C)[C@@H]2C[C@H]2OC(=O)[C@H]3[C@H](C(C)=O)[C@@H](O)C[C@@H]1[C@]23C | 100 | 90 | 100
4 | CC(C)CCC[C@@H](C)[C@H]1CC[C@@H]2[C@]1(C)CC[C@H]1[C@]23C=C[C@]2(C[C@@H](O)CC[C@]12C)OO3 | 0 | 0 | 0
5 | C=CC(CC[C@@H](C)[C@H]1CC[C@@H]2[C@]1(C)CC[C@H]1[C@]23C=C[C@]2(C[C@@H](O)CC[C@]12C)OO3)(OO)C(C)C (mixture of isomers) | 95 | 0 | 20
6 | C=C(CC[C@@H](C)[C@H]1CC[C@@H]2[C@]1(C)CC=C1[C@]23C=C[C@]2(C[C@@H](O)CC[C@]12C)OO3)C(C)C | 0 | 0 | 0
